Columns and labels:
Assay in all cases: Test D controlled growth environment herbicide test, pre- and postemergence
Type in all cases: in vivo
[1] = test system: wheat, spring (spring wheat, Triticum aestivum)
Summary of the method: (§1)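 Rating is visual, 0–100 scale (100 = complete control), made against untreated plants 14–21 d after treatment in controlled growth conditions. Postemergence sprays went onto 1- to 4-leaf plants in peat medium; preemergence sprays onto silt loam after sowing; formulation included a surfactant.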

[2] = test system: mustard, wild (wild mustard, Sinapis arvensis)
Summary of the method: as §1

[3] = test system: wheat, winter (winter wheat, Triticum aestivum)
Summary of the method: as §1

kochia (Kochia scoparia) = test system: kochia (Kochia scoparia)
Summary of the method: as §1

[4] = test system: deadnettle (henbit deadnettle, Lamium amplexicaule)
Summary of the method: as §1

[5] = test system: barley, spring (spring barley, Hordeum vulgare)
Summary of the method: as §1

[6] = test system: windgrass (Apera spica-venti)
Summary of the method: as §1

[7] = test system: foxtail, green (green foxtail, Setaria viridis)
Summary of the method: as §1

[8] = test system: pigweed (Amaranthus retroflexus)
Summary of the method: as §1

[9] = test system: bluegrass (annual bluegrass, Poa annua)
Summary of the method: as §1

[10] = test system: oat, wild (wild oat, Avena fatua)
Summary of the method: as §1

[11] = test system: field violet (Viola arvensis)
Summary of the method: as §1

[12] = test system: Russian thistle (Salsola kali)
Summary of the method: as §1

[13] = Postemergence, 31 g ai/ha, scale 0 to 100 (0 no effect, 100 complete control)
[14] = Postemergence, 125 g ai/ha, visual rating on scale 0 (no effect) to 100 (complete control), 14 to 21 d
[15] = Postemergence, 250 g ai/ha, scale 0 to 100 (0 no effect, 100 complete control)
[16] = Preemergence, 62 g ai/ha, scale 0 to 100 (0 no effect, 100 complete control)
[17] = Preemergence, 125 g ai/ha, scale 0 to 100 (0 no effect, 100 complete control)
[18] = Preemergence, 250 g ai/ha, scale 0 to 100 (0 no effect, 100 complete control)
[19] = postemergence, 62 g ai/ha, scale 0 to 100, 0 no effect, 100 complete control

## Cc1ccc(-c2c(O)c(Br)nn(C)c2=O)c2ccccc12 [Compound 52]
[1]; [13]
  Wheat, Spring plant response rating: 0
[1]; [14]
  Plant response rating, Wheat, Spring: 0
[1]; [15]
  Plant response rating, Wheat, Spring: 5
[1]; Preemergence, 31 g ai/ha
  Plant response rating (scale of 0 to 100), Wheat, Spring: 0
[1]; [16]
  Plant response rating, Wheat, Spring: 0
[1]; [17]
  Plant response rating, Wheat, Spring: 0
[1]; [18]
  Plant response rating, Wheat, Spring: 5
[1]; [19]
  Plant response rating, Wheat, Spring: 0
[2]; [13]
  Mustard, Wild plant response rating: 20
[2]; [14]
  Plant response rating, Mustard, Wild: 90
[2]; [15]
  Plant response rating, Mustard, Wild: 100
[2]; Preemergence, 31 g ai/ha
  Plant response rating (scale of 0 to 100), Mustard, Wild: 85
[2]; [16]
  Plant response rating, Mustard, Wild: 100
[2]; [17]
  Plant response rating, Mustard, Wild: 90
[2]; [18]
  Plant response rating, Mustard, Wild: 98
[2]; [19]
  Plant response rating, Mustard, Wild: 75
[3]; [13]
  Wheat, Winter plant response rating: 0
[3]; [14]
  Plant response rating, Wheat, Winter: 15
[3]; [15]
  Plant response rating, Wheat, Winter: 15
[3]; Preemergence, 31 g ai/ha
  Plant response rating (scale of 0 to 100), Wheat, Winter: 0
[3]; [16]
  Plant response rating, Wheat, Winter: 0
[3]; [17]
  Plant response rating, Wheat, Winter: 0
[3]; [18]
  Plant response rating, Wheat, Winter: 0
[3]; [19]
  Plant response rating, Wheat, Winter: 10
Kochia (Kochia scoparia); [13]
  Kochia plant response rating: 0
Kochia (Kochia scoparia); [14]
  Plant response rating, Kochia: 55
Kochia (Kochia scoparia); [15]
  Plant response rating, Kochia: 65
Kochia (Kochia scoparia); Preemergence, 31 g ai/ha
  Plant response rating (scale of 0 to 100), Kochia: 15
Kochia (Kochia scoparia); [16]
  Plant response rating, Kochia: 35
Kochia (Kochia scoparia); [17]
  Plant response rating, Kochia: 40
Kochia (Kochia scoparia); [18]
  Plant response rating, Kochia: 90
Kochia (Kochia scoparia); [19]
  Plant response rating, Kochia: 20
[4]; [13]
  Deadnettle plant response rating: 35
[4]; [14]
  Plant response rating, Deadnettle: 35
[4]; [15]
  Plant response rating, Deadnettle: 35
[4]; Preemergence, 31 g ai/ha
  Plant response rating (scale of 0 to 100), Deadnettle: 0
[4]; [16]
  Plant response rating, Deadnettle: 0
[4]; [17]
  Plant response rating, Deadnettle: 10
[4]; [18]
  Plant response rating, Deadnettle: 25
[4]; [19]
  Plant response rating, Deadnettle: 25
[5]; [13]
  Barley, Spring plant response rating: 0
[5]; [14]
  Plant response rating, Barley, Spring: 5
[5]; [15]
  Plant response rating, Barley, Spring: 0
[5]; Preemergence, 31 g ai/ha
  Plant response rating (scale of 0 to 100), Barley, Spring: 0
[5]; [16]
  Plant response rating, Barley, Spring: 0
[5]; [17]
  Plant response rating, Barley, Spring: 0
[5]; [18]
  Plant response rating, Barley, Spring: 0
[5]; [19]
  Plant response rating, Barley, Spring: 0
[6]; [13]
  Windgrass plant response rating: 0
[6]; [14]
  Plant response rating, Windgrass: 5
[6]; [15]
  Plant response rating, Windgrass: 5
[6]; Preemergence, 31 g ai/ha
  Plant response rating (scale of 0 to 100), Windgrass: 10
[6]; [16]
  Plant response rating, Windgrass: 10
[6]; [17]
  Plant response rating, Windgrass: 10
[6]; [18]
  Plant response rating, Windgrass: 10
[6]; [19]
  Plant response rating, Windgrass: 5
[7]; [13]
  Foxtail, Green plant response rating: 5
[7]; [14]
  Plant response rating, Foxtail, Green: 10
[7]; [15]
  Plant response rating, Foxtail, Green: 40
[7]; Preemergence, 31 g ai/ha
  Plant response rating (scale of 0 to 100), Foxtail, Green: 0
[7]; [16]
  Plant response rating, Foxtail, Green: 0
[7]; [17]
  Plant response rating, Foxtail, Green: 15
[7]; [18]
  Plant response rating, Foxtail, Green: 35
[7]; [19]
  Plant response rating, Foxtail, Green: 5
[8]; [13]
  Pigweed plant response rating: 35
[8]; [14]
  Plant response rating, Pigweed: 75
[8]; [15]
  Plant response rating, Pigweed: 80
[8]; Preemergence, 31 g ai/ha
  Plant response rating (scale of 0 to 100), Pigweed: 60
[8]; [16]
  Plant response rating, Pigweed: 55
[8]; [17]
  Plant response rating, Pigweed: 65
[8]; [18]
  Plant response rating, Pigweed: 90
[8]; [19]
  Plant response rating, Pigweed: 40
[9]; [13]
  Bluegrass plant response rating: 5
[9]; [14]
  Plant response rating, Bluegrass: 30
[9]; [15]
  Plant response rating, Bluegrass: 30
[9]; Preemergence, 31 g ai/ha
  Plant response rating (scale of 0 to 100), Bluegrass: 0
[9]; [16]
  Plant response rating, Bluegrass: 10
[9]; [17]
  Plant response rating, Bluegrass: 25
[9]; [18]
  Plant response rating, Bluegrass: 35
[9]; [19]
  Plant response rating, Bluegrass: 5
[10]; [13]
  Oat, Wild plant response rating: 5
[10]; [14]
  Plant response rating, Oat, Wild: 5
[10]; [15]
  Plant response rating, Oat, Wild: 15
[10]; Preemergence, 31 g ai/ha
  Plant response rating (scale of 0 to 100), Oat, Wild: 25
[10]; [16]
  Plant response rating, Oat, Wild: 25
[10]; [17]
  Plant response rating, Oat, Wild: 25
[10]; [18]
  Plant response rating, Oat, Wild: 30
[10]; [19]
  Plant response rating, Oat, Wild: 5
[11]; [13]
  Field Violet plant response rating: 35
[11]; [14]
  Plant response rating, Field Violet: 75
[11]; [15]
  Plant response rating, Field Violet: 75
[11]; Preemergence, 31 g ai/ha
  Plant response rating (scale of 0 to 100), Field Violet: 0
[11]; [16]
  Plant response rating, Field Violet: 10
[11]; [17]
  Plant response rating, Field Violet: 75
[11]; [18]
  Plant response rating, Field Violet: 85
[11]; [19]
  Plant response rating, Field Violet: 65
[12]; [13]
  Russian Thistle plant response rating: 20
[12]; [14]
  Plant response rating, Russian Thistle: 45
[12]; [15]
  Plant response rating, Russian Thistle: 55
[12]; Preemergence, 31 g ai/ha
  Plant response rating (scale of 0 to 100), Russian Thistle: 0
[12]; [16]
  Plant response rating, Russian Thistle: 0
[12]; [17]
  Plant response rating, Russian Thistle: 0
[12]; [18]
  Plant response rating, Russian Thistle: 0
[12]; [19]
  Plant response rating, Russian Thistle: 35

— US10597388B2, “Pyridazinone herbicides” (FMC CORPORATION, priority 2014, dated 2020)
